Article PMC9837035 (Nature Communications, 2023)
“And” between values parts separate entries of the source, which are not always exact repeats. Equal values may be shown once. Read-outs that look alike come from different tables or passages of the source.

Key:
[1] = test system: BCL11A occupancy at the β-globin locus; assay: ChIP-qPCR with antibody against BCL11A in HUDEP-2 cells; type: cell-based, human; parameters: ChIP-qPCR, antibody against BCL11A: scale not given here; conditions: for occupancies of BCL11A in the BGLT3 gene region: HUDEP-2, 4 days
Protocol: A total of 0.5–1 × 10^6 cells were cross-linked with 1% formaldehyde for 10 min at room temperature and the reaction was quenched with 250 mM glycine. Cross-linked cells were then lysed with buffer 1 (15 mM Tris-HCl (pH 7.5), 60 mM KCl, 15 mM NaCl, 5 mM MgCl2, 0.1 mM EGTA, 300 mM sucrose, […], 1 mM phenylmethanesulfonyl fluoride (PMSF), 0.5% NP40) and incubated on ice for 10 min. After centrifugation, the pellet was re-suspended in buffer 2 (15 mM Tris-HCl (pH 7.5), 60 mM KCl, 15 mM NaCl, 5 mM MgCl2, 0.1 mM EGTA, 1.2 M sucrose, […], 1 mM PMSF). After centrifugation, the pellet was then re-suspended in MNase buffer (50 mM Tris-HCl (pH 7.5), 1 mM CaCl2, 4 mM MgCl2, 320 mM sucrose, 1 mM PMSF) and digested with 100 U of micrococcal nuclease (Takara) at 37 °C for 15 min. After the reaction was quenched with 20 mM EDTA, the supernatants were incubated with antibodies (anti-H3K9me2 (1:100), Abcam, ab1220; anti-H3K9ac (1:100), Active Motif, 39917; Goat anti-IgG (H + L) (1:100), Jackson Immunoresearch; anti-BCL11A (1:100), Novus Biologicals, NB600-261; anti-ZBTB7A (1:100), Thermo Fisher Scientific, eBioscience (13E9); anti-CHD3 (1:100), Novus Biologicals, NB-100-60412; anti-CHD4 (1:100), abcam, ab240640) and Protein A/G PLUS-Agarose (Santa Cruz Biotechnology) overnight at 4 °C. Beads were washed sequentially once with the following buffers: wash buffer A (50 mM Tris-HCl (pH 7.5), 75 mM NaCl, 10 mM EDTA, 0.01% NP40), wash buffer B (50 mM Tris-HCl (pH 7.5), 100 mM NaCl, 10 mM EDTA, 0.01% NP40), wash buffer C (50 mM Tris-HCl (pH 7.5), 175 mM NaCl, 10 mM EDTA, 0.01% NP40). After treatment with proteinase K in buffer 4 (20 mM Tris-HCl (pH 8.0), 10 mM EDTA, 400 mM NaCl, 0.5% SDS) at 56 °C overnight, DNA was purified using the FastGene Gel/PCR Extraction Kit (Nippon Genetics). The samples were analyzed by qPCR. Primers are listed in Supplementary Table 10. ChIP-seq experiments were performed by GENEWIZ. Tracks were visualized using the integrative genome viewer. ChIP-seq analysis were analyzed Cutadapt (V1.9.1) for QC, FastQC (V0.10.1) for QC assessment, Bowtie (V2.1.0) for mapping, strand cross-correlation (SCC) for ChIP quality assessment, MACS2 for peak calling, and R package ChIPpeakAnno for Peak annotated.

[2] = test system: CD34+ cells; assay: Cell viability of CD34+ cells by cell counting; type: cell-based, human; conditions: for cell viability: CD34+ cells, 10 days
Protocol: HUDEP-2 cells and HiDEP-1 cells were grown in Stemline II Hematopoietic Stem Cell Expansion Medium (Sigma) supplemented with 50 ng/mL recombinant stem cell factor (SCF; R&D systems), 3 IU/mL recombinant erythropoietin (EPO; Kyowa Kirin), 1 μM dexamethasone (Dex; Sigma), and 1 μg/mL doxycycline (Sigma). A total of 1 × 10^5 human CD34^+ progenitor cells derived from bone marrow or peripheral blood (Lonza) were cultured on 35-mm dishes (BD Falcon) in StemSpan SFEMII medium with 50 ng/mL SCF, 5 IU/mL EPO, and 10 ng /mL interleukin 3 (IL-3; R&D systems). The medium was changed on day 4 to SCF, EPO, and 1 μM Dex, and the cells were transferred to 60-mm dishes (BD Falcon). Seven days after the onset of differentiation, cells were counted and 1 × 10^6 cells were re-plated on 100-mm dishes (BD Falcon) with SCF, EPO, and Dex. The rat myoblast cell line H9c2, HEK293T, and PLAT-E cells were maintained in Dulbecco’s modified Eagle’s medium (Thermo Fisher Scientific) supplemented with 10% heat-inactivated fetal bovine serum (FBS) and penicillin/streptomycin. All cells were cultured at 37 °C under 5% CO2.

[3] = molecular target: T1, DNMT3a (Homo sapiens, UniProt Q9Y6K1); assay: Radioisotope-based methyltransferase assay (selectivity); type: biochemical
T1 construct: purchased Reaction Biology
T1 sequence (Q9Y6K1 whole entry, looked up): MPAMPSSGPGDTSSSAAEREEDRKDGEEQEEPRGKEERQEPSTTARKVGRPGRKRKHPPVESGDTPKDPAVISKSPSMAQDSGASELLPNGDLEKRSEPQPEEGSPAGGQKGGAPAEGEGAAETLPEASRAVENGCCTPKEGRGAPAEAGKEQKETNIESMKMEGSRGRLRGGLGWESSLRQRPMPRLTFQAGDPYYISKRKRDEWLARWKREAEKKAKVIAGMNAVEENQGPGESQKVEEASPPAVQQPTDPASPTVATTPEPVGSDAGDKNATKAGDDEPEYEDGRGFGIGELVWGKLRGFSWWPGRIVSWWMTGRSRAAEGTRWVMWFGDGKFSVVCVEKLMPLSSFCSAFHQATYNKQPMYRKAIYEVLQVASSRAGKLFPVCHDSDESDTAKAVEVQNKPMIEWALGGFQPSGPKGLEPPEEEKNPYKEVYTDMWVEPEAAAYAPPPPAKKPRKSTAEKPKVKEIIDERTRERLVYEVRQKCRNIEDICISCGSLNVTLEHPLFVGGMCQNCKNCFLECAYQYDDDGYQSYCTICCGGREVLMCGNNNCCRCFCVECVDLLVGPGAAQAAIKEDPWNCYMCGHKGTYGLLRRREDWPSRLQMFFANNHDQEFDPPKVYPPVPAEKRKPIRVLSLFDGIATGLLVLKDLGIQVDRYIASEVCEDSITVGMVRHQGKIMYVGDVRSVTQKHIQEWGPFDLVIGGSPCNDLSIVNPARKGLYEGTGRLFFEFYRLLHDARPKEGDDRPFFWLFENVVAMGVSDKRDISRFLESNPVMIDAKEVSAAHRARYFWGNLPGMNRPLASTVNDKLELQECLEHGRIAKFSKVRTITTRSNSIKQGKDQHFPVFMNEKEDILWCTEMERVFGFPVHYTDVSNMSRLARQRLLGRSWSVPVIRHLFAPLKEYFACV

SMILES: NC(=O)NO [Hydroxyurea, hydroxyurea]
- ChIP-qPCR, antibody against BCL11A ([1]; BGLT3 locus, HUDEP-2 cells treated with hydroxyurea, replicates 1a-3b): 0.8842 and 1.017 and 0.83 and 0.5175 and 0.6913 and 0.7867
- ChIP-qPCR, antibody against BCL11A ([1]; HS1, HUDEP-2 cells treated with hydroxyurea, replicates 1a-3b): 1.064 and 0.5507 and 0.5814 and 1.256 and 1.601 and 1.4807
- ChIP-qPCR, antibody against BCL11A ([1]; HS2, HUDEP-2 cells treated with hydroxyurea, replicates 1a-3b): 0.08682 and 2.447 and 1.693 and 2.52 and 0.949 and 0.09517
- ChIP-qPCR, antibody against BCL11A ([1]; HS3, HUDEP-2 cells treated with hydroxyurea, replicates 1a-3b): 1.655 and 3.8122 and 0.8818 and 0.7067 and 0.6435 and 2.151
- ChIP-qPCR, antibody against BCL11A ([1]; HS4, HUDEP-2 cells treated with hydroxyurea, replicates 1a-3b): 0.8173 and 1.536 and 0.3618 and 0.975 and 1.091 and 0.6403
- occupancies of BCL11A in the BGLT3 gene region [1]: decreased
- ChIP-qPCR, antibody against BCL11A ([1]; β-globin promoter, HUDEP-2 cells treated with hydroxyurea, replicates 1a-3b): 0.5672 and 1.0178 and 0.4614 and 1.054 and 0.8774 and 0.8041
- ChIP-qPCR, antibody against BCL11A ([1]; γ-globin promoter, HUDEP-2 cells treated with hydroxyurea, replicates 1a-3b): 0.6219 and 0.3788 and 0.8175 and 0.7872 and 0.7026 and 0.3349
- ChIP-qPCR, antibody against BCL11A ([1]; δ-globin promoter, HUDEP-2 cells treated with hydroxyurea, replicates 1a-3b): 0.5737 and 0.8872 and 0.4941 and 0.547 and 0.6567 and 0.5438
- Cell viability in CD34+ cells ([2]; 10 μM): 3.83 10*7 cells and 4.25 10*7 cells and 4.44 10*7 cells
- Cell viability in CD34+ cells ([2]; 50 μM): 1.8 10*7 cells and 1.47 10*7 cells and 1.48 10*7 cells
- cell viability [2]: severe cytotoxicity

SMILES: Cc1c(C(=O)NC(CCC2CC2)C(=O)Nc2ccc(C#N)cc2)[nH]c2c1C(=O)CC(C)(C)C2 (centres unmarked) [RK-701]
- ChIP-qPCR, antibody against BCL11A ([1]; BGLT3 locus, HUDEP-2 cells treated with RK-701, replicates): 0.6314 and 0.7848 and 0.4856 and 0.8245 and 0.6776 and 0.5891
- ChIP-qPCR, antibody against BCL11A ([1]; HS1, HUDEP-2 cells treated with RK-701, replicates): 0.3627 and 0.3768 and 0.661 and 0.2587 and 0.1661 and 0.2446
- ChIP-qPCR, antibody against BCL11A ([1]; HS2, HUDEP-2 cells treated with RK-701, replicates): 0.4595 and 0.8137 and 0.6566 and 1.335 and 1.936 and 0.6063 and 1.138 and 0.7851
- ChIP-qPCR, antibody against BCL11A ([1]; HS3, HUDEP-2 cells treated with RK-701, replicates): 0.4555 and 0.6595 and 0.2297 and 0.7103 and 0.2788 and 0.5275
- ChIP-qPCR, antibody against BCL11A ([1]; HS4, HUDEP-2 cells treated with RK-701, replicates): 0.3987 and 0.3554 and 0.6174 and 0.2389
- occupancies of BCL11A in the BGLT3 gene region [1]: significantly suppressed
- ChIP-qPCR, antibody against BCL11A ([1]; β-globin promoter, HUDEP-2 cells treated with RK-701, replicates): 0.04573 and 0.1654 and 0.1051 and 0.1187 and 0.1597 and 0.09847 and 0.07533
- ChIP-qPCR, antibody against BCL11A ([1]; γ-globin promoter, HUDEP-2 cells treated with RK-701, replicates): 0.1313 and 0.1159 and 0.3396 and 0.07171 and 0.121 and 0.0314
- ChIP-qPCR, antibody against BCL11A ([1]; δ-globin promoter, HUDEP-2 cells treated with RK-701, replicates): 0.018 and 0.05206 and 0.04359 and 0.0353 and 0.01403 and 0.04746
- IC50 ([3]; DNMT3a, 1 μM SAM, read-out: IC50): > 100000 nM
- IC50 ([3]; DNMT3a, RK-701 in duplicate, read-out: IC50): > 100000 nM
- Cell viability in CD34+ cells ([2]; 0.01 μM): 4.59 10*7 cells and 4.56 10*7 cells and 4.57 10*7 cells
- Cell viability in CD34+ cells ([2]; 0.03 μM): 4.39 10*7 cells and 4.41 10*7 cells and 4.97 10*7 cells
- Cell viability in CD34+ cells ([2]; 0.1 μM): 4.54 10*7 cells and 4.45 10*7 cells and 4.75 10*7 cells
- Cell viability in CD34+ cells ([2]; 0.3 μM): 4.11 10*7 cells and 4.64 10*7 cells and 4.5 10*7 cells
- Cell viability in CD34+ cells ([2]; 1 μM): 4.01 10*7 cells and 4.28 10*7 cells and 4.43 10*7 cells
- Cell viability in CD34+ cells ([2]; 3 μM): 4.31 10*7 cells and 4.53 10*7 cells and 4.47 10*7 cells
- cell viability [2]: without affecting cell viability

SMILES: Nc1ncnc2c1ncn2[C@@H]1O[C@H](CSCC[C@H](N)C(=O)O)[C@@H](O)[C@H]1O [SAH, S-(5'-Adenosyl)-L-homocysteine, reference compound]
- IC50 ([3]; IC50, DNMT3a, 1 μM SAM): 300 nM
- IC50 ([3]; IC50, DNMT3a, RK-701 in duplicate): 300 nM
